Experimental data as given in PMC4211885 (PLoS ONE, 2014).

Tests used:
[1] = test system: Uninjected oocytes; assay: Direct-current response of uninjected oocytes (control); format: cell-based, Xenopus laevis; details: n = 5
Description: We first tested receptor-injected oocytes for the occurrence of a response to biogenic amines. Applications of tyramine, octopamine, or dopamine produced an inward ID, typically ranging between 50 nA and 500 nA, under a constant holding potential of −60 mV. […] The amplitude of tyramine evoked ID at concentrations below 10 µM was greater than octopamine or dopamine within the same oocyte (Figs. 2A and S2). […] Instead it would rise and then begin to decline prior to the removal of agonist (dotted line). However, at high concentrations, above 100 µM, ID appeared to approach a stable plateau (Fig. 2B).
Recordings were performed 1–3 days post-injection at room temperature (20–22°C). Currents were recorded under two-electrode voltage clamp using an Axoclamp 900a amplifier (Molecular Devices LLC, CA USA). A digidata 1440a analog to digital converter was used in conjunction with pCLAMP 10 software (Molecular Devices) for data acquisition and to generate voltage commands. For each step protocol or chemical application data were typically sampled at 5 KHz and filtered digitally at 1 KHz. For the duration of each experiment the current was also continuously sampled at 1 kHz using a separate minidigi 1A digitizer (Molecular Devices). Glass microelectrodes were pulled from filamented 1.2 mm thin wall borosilicate glass (World Precision Instruments, Sarasota, FL) using a Sutter Instruments P-97 puller. They were filled with 3 M KCl and had resistances of 0.8–2.0 MΩ. A silver chloride pellet immersed in 3 M KCl and connected to the bath via a 3% agar bridge made with 3 M KCl was used as the reference electrode.
Supplementary file pone.0111314.s001.tif: Figure S1 Direct-current (ID) responses are specifically evoked by agonists in oocytes injected with OA/TAMac only. […] The trace is representative of an experimental set of 5 oocytes. Additional uninjected oocytes were tested with various experimental sets throughout the course of this study. (B) A typical preliminary test of agonist sensitivity. Injection of OA/TAMac cRNA alone is sufficient to confer sensitivity to OA. […] Applications are approximately 30 seconds in the upper trace. (C) The response of clonidine (CN), synephrine (SN), and OA within a single OA/TAMac injected oocyte. […] All drugs are applied for 30 seconds each as indicated by black rectangles. Agonist evoked currents are measured within oocytes relative to the octopamine response at 50 µM. The comparison is made to OA because the amplitude of the tyramine response becomes small at concentrations above 10 µM. This is due to a mechanistically undefined process not seen with any other agonist we tested. Note that TA is the first compound applied to a naïve oocyte in this example. […] (TIF) Click here for additional data file.

[2] = test system: CFTR conductance (intracellular cAMP); assay: cAMP detection by whole oocyte (CFTR) conductance in oocytes co-expressing CFTR and OA/TAMac; format: cell-based, Xenopus laevis; details: for Increase in cAMP levels (CFTR conductance): OA and TA at 100 µM or 1000 µM
From the text: It is also unlikely that the effects of tyramine at high concentration result from an increase in cAMP. It is common that octopaminergic GPCRs can couple through the canonical Gαs/cAMP pathway so we used co-expression of the Cystic Fibrosis Trans-membrane Conductance Regulator (CFTR) as a means of testing for increases in cAMP (see methods for more detail) [60]–[63].
As a means of detecting rises in intracellular cAMP levels we tested oocytes co-expressing the CFTR channel and OA/TAMac. Heterologously expressed CFTR can be used as an extremely sensitive assay for intracellular cAMP in Xenopus oocytes. CFTR mediates a chloride-selective leak conductance that is activated by increases in intracellular cAMP [63]. Activity of CFTR can thus be used to indicate whether changes in cAMP correspond with ligand application [60]–[62]. Whole oocyte conductance was monitored using a step protocol and calculated from I/V plots. The command voltage was stepped from the holding potential to various levels (−10 mV to −55 mV in −5 mV increments) for 150 ms. The steady state current during each step was plotted against the command voltage and fit to a line using Clampfit 10 software (Fig. S7A). The slope of the line was taken as the conductance. To minimize the magnitude of the holding current between drug applications, oocytes expressing CFTR were typically held at −20 mV which is close to the typical chloride reversal potential. This was confirmed by the fact that the direct-current evoked by forskolin could appear inward or outward at −20 mV. Oocytes expressing either OA/TAMac alone or OA/TAMac and CFTR typically had resting membrane potentials between −20 mV and −30 mV (mean of −26±5 mV calculated from oocytes in Fig. S7) due to increased expression of endogenous chloride currents.
(A) The measurement of whole oocyte conductance was done by plotting steady state current against the command voltage recorded during a step protocol. It is defined as the slope (I/V) of the linear least squares regression line. In the example shown tyramine (TA) causes no apparent change in whole oocyte conductance. Octopamine (OA) causes a small change compared to the adenylate cyclase activator forskolin (FSK). […] These cumulative data are from 20 OA/TAMac and CFTR-injected oocytes and 6 OA/TAMac -only injected oocytes. Conductance was measured as shown in A. Not all compounds were tested in all oocytes. Each response is treated as an independent sample. Concentrations of OA and TA were at 100 µM or 1000 µM, FSK was at 50 µM. Some points obtained at 3 minutes were grouped with the 4 minute responses. (C) The change in conductance (Δg) occurring within oocytes as determined by the difference between baseline and the indicated time points post-application of compound. […]

Row | Compound | Response of uninjected oocytes [1] | Response of uninjected oocytes ([1]; listed as TA) | Increase in cAMP levels (CFTR conductance) [2] | Mean change in conductance (Δg) within oocytes ([2]; compiled from 12 oocytes, s.d. = 1.72 µS, high conductance outlier excluded) | Response of uninjected oocytes ([1]; listed as OA)
1 | NCCc1ccc(O)cc1 [tyramine] | no response | do not respond | neither octopamine nor tyramine produced significant increases | 0.30 µS | 
2 | NCC(O)c1ccc(O)cc1 (racemic) [octopamine, (+/−)-octopamine] | no response |  | neither octopamine nor tyramine produced significant increases |  | do not respond
